Data reported in patent US20230265151A1, “GIP/GLP1 CO-AGONIST COMPOUNDS” (priority 2020, published 2023).
Read-outs that look alike come from different tables or passages of the source.

Legend:
[1] = target: T1, human Gcg receptor (hGcgR) (Homo sapiens, UniProt P47871); assay: [125I]-Glucagon binding, SPA with membranes of HEK293 cells expressing hGcgR; conditions: human GcgR; geometric mean (SEM, n); read-out: Binding Affinity Ki, nM (SEM, n) hGCGR
T1 construct: expressed in transfected cells; crude membranes
T1 sequence (P47871 26-477): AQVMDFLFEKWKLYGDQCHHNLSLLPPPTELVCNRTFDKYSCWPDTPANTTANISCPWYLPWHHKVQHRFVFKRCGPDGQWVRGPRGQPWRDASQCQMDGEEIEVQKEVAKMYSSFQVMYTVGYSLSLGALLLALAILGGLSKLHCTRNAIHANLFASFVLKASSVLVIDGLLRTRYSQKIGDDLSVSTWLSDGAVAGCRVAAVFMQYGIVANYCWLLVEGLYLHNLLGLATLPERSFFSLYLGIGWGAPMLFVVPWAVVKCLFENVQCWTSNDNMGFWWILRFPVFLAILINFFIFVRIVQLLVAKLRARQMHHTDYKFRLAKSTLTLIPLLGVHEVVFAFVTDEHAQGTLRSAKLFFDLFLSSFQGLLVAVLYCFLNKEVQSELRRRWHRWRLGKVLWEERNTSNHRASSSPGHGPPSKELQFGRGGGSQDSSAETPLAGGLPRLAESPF

hGCGR = target: T2, hGCGR (Homo sapiens, UniProt P47871); assay: Functional cAMP formation (HTRF) in HEK-293 clonal cells expressing hGCGR, 0.1% bovine casein, without or with 1.0% human serum albumin; assay type: cell-based; conditions: read-out: hGCGR EC50, nM (SEM, n)
T2 construct: expressed in transfected cells
T2 sequence (P47871 26-477): as above
How it was run: (§1)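 Cells were stimulated with peptide for 30 min at 37° C, then intracellular cAMP was measured by competitive HTRF (665/620 nm ratio) and converted to nM using a cAMP standard curve. Relative EC50 and Emax came from four-parameter logistic fits of percent maximal response against peptide concentration.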

[2] = target: T3, human GIP receptor (hGIPR) (Homo sapiens, UniProt P48546); assay: [125I]-GIP binding, SPA with membranes of CHO cells expressing hGIPR; conditions: human GIPR; geometric mean (SEM, n); read-out: Binding Affinity Ki, nM (SEM, n) hGIPR
T3 construct: expressed in transfected cells; crude membranes
T3 sequence (P48546 22-466): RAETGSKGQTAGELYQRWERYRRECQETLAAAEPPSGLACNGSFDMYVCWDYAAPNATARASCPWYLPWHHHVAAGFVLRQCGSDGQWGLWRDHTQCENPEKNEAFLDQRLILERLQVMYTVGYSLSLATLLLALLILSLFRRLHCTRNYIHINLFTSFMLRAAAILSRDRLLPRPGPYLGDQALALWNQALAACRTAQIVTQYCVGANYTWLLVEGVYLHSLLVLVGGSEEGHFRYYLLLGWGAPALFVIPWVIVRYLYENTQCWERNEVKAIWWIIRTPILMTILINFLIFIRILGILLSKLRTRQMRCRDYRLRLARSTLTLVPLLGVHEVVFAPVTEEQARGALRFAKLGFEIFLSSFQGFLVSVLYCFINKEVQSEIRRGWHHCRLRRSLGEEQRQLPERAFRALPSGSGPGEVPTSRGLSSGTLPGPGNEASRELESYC

hGIPR = target: T4, hGIPR (Homo sapiens, UniProt P48546); assay: Functional cAMP formation (HTRF) in HEK-293 clonal cells expressing hGIPR, 0.1% bovine casein, without or with 1.0% human serum albumin; assay type: cell-based; conditions: for Emax: read-out: hGIPR Emax, % ± SEM; for EC50: cAMP, read-out: hGIPR EC50, nM (SEM, n)
T4 construct: expressed in transfected cells
T4 sequence (P48546 22-466): T3 sequence (P48546 22-466)
How it was run: as §1

hGLP-1R = hGLP-1R (Homo sapiens, UniProt P43220); assay: Functional cAMP formation (HTRF) in HEK-293 clonal cells expressing hGLP-1R, 0.1% bovine casein, without or with 1.0% human serum albumin; assay type: cell-based; parameters: expressed in transfected cells; conditions: for EC50: read-out: hGLP-1R EC50, nM (SEM, n); for Emax: read-out: hGLP-1R Emax, % ± SEM
Chain of hGLP-1R (P43220 24-463): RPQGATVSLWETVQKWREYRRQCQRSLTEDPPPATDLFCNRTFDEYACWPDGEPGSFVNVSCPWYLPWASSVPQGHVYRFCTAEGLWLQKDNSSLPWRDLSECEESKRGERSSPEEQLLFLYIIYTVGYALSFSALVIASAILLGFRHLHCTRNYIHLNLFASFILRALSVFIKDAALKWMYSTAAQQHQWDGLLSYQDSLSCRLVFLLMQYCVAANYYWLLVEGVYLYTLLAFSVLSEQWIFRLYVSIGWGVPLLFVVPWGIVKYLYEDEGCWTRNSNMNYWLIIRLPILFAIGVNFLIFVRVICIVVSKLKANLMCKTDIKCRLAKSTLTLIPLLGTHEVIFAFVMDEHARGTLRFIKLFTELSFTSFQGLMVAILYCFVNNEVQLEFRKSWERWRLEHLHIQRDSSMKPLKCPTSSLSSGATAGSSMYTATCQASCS
How it was run: as §1

[3] = 0.1% bovine casein and 1.0% human serum albumin, 37° C., geometric mean
[4] = cAMP, incubated at 37° C., 0.1% bovine casein (no human serum albumin), geometric mean
[5] = cAMP, 37° C., 0.1% bovine casein (no human serum albumin), geometric mean
[6] = cAMP, 37° C., 0.1% bovine casein and 1.0% human serum albumin, geometric mean (SEM, n)
[7] = HEK293, cAMP, 37° C., 0.1% bovine casein and 1.0% human serum albumin, percent of maximal response to GIP(1-42)NH2
[8] = 37° C., 0.1% bovine casein (no human serum albumin), geometric mean
[9] = 37° C., 0.1% bovine casein and 1.0% human serum albumin, geometric mean (SEM, n)
[10] = HEK293, cAMP, 37° C., 0.1% bovine casein, percent of maximal response to GLP-1(7-36)NH2, arithmetic mean

Work on `CC[C@H](C)[C@H](NC(=O)[C@H](CC(C)C)NC(=O)[C@](C)(Cc1ccc(O)cc1)NC(=O)[C@@H](CCC(=O)O)NC(=O)[C@@H](NC(=O)[C@H](Cc1cccc(F)c1)NC(=O)[C@H](CCC(=O)O)NC(=O)C(C)(C)NC(=O)[C@H](CCC(N)=O)NC(=O)[C@H](C)NC(=O)[C@H](CCCCNC(=O)COCCOCCNC(=O)COCCOCCNC(=O)CC[C@H](NC(=O)CCCCCCCCCCCCC(=O)O)C(=O)O)NC(=O)[C@H](CCCN)NC(=O)[C@H](CC(=O)O)NC(=O)[C@H](CC(C)C)NC(=O)[C@](C)(CC(C)C)NC(=O)[C@@H](NC(=O)[C@H](CO)NC(=O)[C@H](Cc1ccncc1)NC(=O)[C@H](CC(=O)O)NC(=O)[C@H](CO)NC(=O)[C@@H](NC(=O)[C@](C)(Cc1ccccc1F)NC(=O)[C@@H](NC(=O)CNC(=O)[C@H](CCC(=O)O)NC(=O)C(C)(C)NC(=O)[C@@H](N)Cc1ccc(O)cc1)[C@@H](C)O)[C@@H](C)O)[C@@H](C)CC)[C@@H](C)CC)C(=O)N[C@@H](CCC(=O)O)C(=O)NCC(=O)NCC(=O)N[C@@H](CCCCNC(=O)COCCOCCNC(=O)COCCOCCNC(=O)CC[C@H](NC(=O)CCCCCCCCCCCCC(=O)O)C(=O)O)C(=O)N[C@@H](CO)C(=O)N[C@@H](CO)C(=O)NCC(=O)N[C@@H](C)C(=O)N1CCC[C@H]1C(=O)N1CCC[C@H]1C(=O)N1CCC[C@H]1C(=O)N[C@@H](CO)C(N)=O` [Example 64] yielded a Ki [1] of over 4780 nM, an EC50 (hGCGR; [3]) of over 9950 nM and an EC50 (hGCGR; [4]) of over 9950 nM. It also gave a Ki [2] of 0.161 nM, an Emax (hGIPR; HEK293, 0.1% bovine casein and 1.0% human serum albumin, 37° C., percent of maximal response to GIP(1-42)NH2) of 90.5 ± 3.44% and an Emax (hGIPR; HEK293, percent of maximal response to GIP(1-42)NH2, 37° C., 0.1% bovine casein, arithmetic mean) of 92.9 ± 3.06%. It also gave an EC50 (hGIPR; incubated at 37° C., 0.1% bovine casein (no human serum albumin), geometric mean) of 0.0158 nM, an EC50 (hGLP-1R; [3]) of 27 nM and an Emax (hGLP-1R; HEK293, 0.1% bovine casein and 1.0% human serum albumin, 37° C., percent of maximal response to GLP-1(7-36)NH2) of 87.8 ± 0.301%. For the same molecule, the Emax (hGLP-1R; HEK293, percent of maximal response to GLP-1(7-36)NH2, 37° C., 0.1% bovine casein, arithmetic mean) was 97.3 ± 4.13% and the EC50 (hGLP-1R; [4]) was 0.557 nM.

Work on `CC[C@H](C)[C@H](NC(=O)[C@H](CC(C)C)NC(=O)[C@](C)(Cc1ccc(O)cc1)NC(=O)[C@H](CCCCNC(=O)COCCOCCNC(=O)COCCOCCNC(=O)CC[C@H](NC(=O)CCCCCCCCCCCCC(=O)O)C(=O)O)NC(=O)[C@@H](NC(=O)[C@H](Cc1ccccc1)NC(=O)[C@H](CCC(=O)O)NC(=O)C(C)(C)NC(=O)[C@H](CCC(N)=O)NC(=O)[C@H](C)NC(=O)[C@H](CCC(N)=O)NC(=O)[C@H](CCCN)NC(=O)[C@H](CC(=O)O)NC(=O)[C@H](CC(C)C)NC(=O)[C@](C)(CC(C)C)NC(=O)[C@@H](NC(=O)C(C)(C)NC(=O)[C@H](Cc1ccncc1)NC(=O)[C@H](CC(=O)O)NC(=O)[C@H](CO)NC(=O)[C@@H](NC(=O)[C@](C)(Cc1ccccc1F)NC(=O)[C@@H](NC(=O)CNC(=O)[C@H](CCC(=O)O)NC(=O)C(C)(C)NC(=O)[C@@H](N)Cc1ccc(O)cc1)[C@@H](C)O)[C@@H](C)O)[C@@H](C)CC)[C@@H](C)CC)C(=O)N[C@@H](CCCCNC(=O)COCCOCCNC(=O)COCCOCCNC(=O)CC[C@H](NC(=O)CCCCCCCCCCCCC(=O)O)C(=O)O)C(=O)NCC(=O)NCC(=O)N1CCC[C@H]1C(=O)N[C@@H](CO)C(=O)N[C@@H](CO)C(=O)NCC(=O)N[C@@H](C)C(=O)N1CCC[C@H]1C(=O)N1CCC[C@H]1C(=O)N1CCC[C@H]1C(=O)N[C@@H](CO)C(N)=O` [Example 411] yielded a Ki [1] of over 957 nM, an EC50 (hGCGR; [5]) of over 9950 nM and an EC50 (hGCGR; [6]) of over 9950 nM. It also gave a Ki [2] of 0.0375 nM, an Emax (hGIPR; [7]) of 84.6% and an EC50 (hGIPR; [8]) of 0.0102 nM. It also gave an EC50 (hGIPR; [9]) of 1.09 nM, an Emax (hGLP-1R; [10]) of 110% and an EC50 (hGLP-1R; [5]) of 0.167 nM. The EC50 (hGLP-1R; [6]) was 11.4 nM.

In the case of `CC[C@H](C)[C@H](NC(=O)[C@H](CC(C)C)NC(=O)[C@](C)(Cc1ccc(O)cc1)NC(=O)[C@H](CCCCNC(=O)COCCOCCNC(=O)COCCOCCNC(=O)COCCOCCNC(=O)CC[C@H](NC(=O)CCCCCCCCCCCCC(=O)O)C(=O)O)NC(=O)[C@@H](NC(=O)[C@H](Cc1ccccc1)NC(=O)[C@H](CCC(=O)O)NC(=O)C(C)(C)NC(=O)[C@H](CCC(N)=O)NC(=O)[C@H](C)NC(=O)[C@H](CCC(N)=O)NC(=O)[C@H](CCCN)NC(=O)[C@H](CC(=O)O)NC(=O)[C@H](CC(C)C)NC(=O)[C@](C)(CC(C)C)NC(=O)[C@@H](NC(=O)C(C)(C)NC(=O)[C@H](Cc1ccncc1)NC(=O)[C@H](CC(=O)O)NC(=O)[C@H](CO)NC(=O)[C@@H](NC(=O)[C@](C)(Cc1ccccc1F)NC(=O)[C@@H](NC(=O)CNC(=O)[C@H](CCC(=O)O)NC(=O)C(C)(C)NC(=O)[C@@H](N)Cc1ccc(O)cc1)[C@@H](C)O)[C@@H](C)O)[C@@H](C)CC)[C@@H](C)CC)C(=O)N[C@@H](CCCCNC(=O)COCCOCCNC(=O)COCCOCCNC(=O)COCCOCCNC(=O)CC[C@H](NC(=O)CCCCCCCCCCCCC(=O)O)C(=O)O)C(=O)NCC(=O)NCC(=O)N1CCC[C@H]1C(=O)N[C@@H](CO)C(=O)N[C@@H](CO)C(=O)NCC(=O)N[C@@H](C)C(=O)N1CCC[C@H]1C(=O)N1CCC[C@H]1C(=O)N1CCC[C@H]1C(=O)N[C@@H](CO)C(N)=O` [Example 460], the Ki [1] is reported as over 959 nM, the EC50 (hGCGR; [5]) is reported as over 9950 nM and the EC50 (hGCGR; [6]) is reported as over 9950 nM. It also gave a Ki [2] of 0.0528 nM, an Emax (hGIPR; [7]) of 89.5% and an EC50 (hGIPR; [8]) of 0.0108 nM. It also gave an Emax (hGLP-1R; [10]) of 111%, an EC50 (hGLP-1R; [5]) of 0.187 nM and an EC50 (hGLP-1R; [6]) of 6.31 nM.

Work on `CC[C@H](C)[C@H](NC(=O)[C@H](CC(C)C)NC(=O)[C@](C)(Cc1ccc(O)cc1)NC(=O)[C@@H](CCC(=O)O)NC(=O)[C@@H](NC(=O)[C@H](Cc1ccccc1)NC(=O)[C@H](CCCCNC(=O)COCCOCCNC(=O)COCCOCCNC(=O)CC[C@H](NC(=O)CCCCCCCCCCCCC(=O)O)C(=O)O)NC(=O)C(C)(C)NC(=O)[C@H](CCC(N)=O)NC(=O)[C@H](C)NC(=O)[C@H](CCC(N)=O)NC(=O)[C@H](CCCN)NC(=O)[C@H](CC(=O)O)NC(=O)[C@H](CC(C)C)NC(=O)[C@](C)(CC(C)C)NC(=O)[C@@H](NC(=O)C(C)(C)NC(=O)[C@H](Cc1ccncc1)NC(=O)[C@H](CC(=O)O)NC(=O)[C@H](CO)NC(=O)[C@@H](NC(=O)[C@](C)(Cc1ccccc1F)NC(=O)[C@@H](NC(=O)CNC(=O)[C@H](CCC(=O)O)NC(=O)C(C)(C)NC(=O)[C@@H](N)Cc1ccc(O)cc1)[C@@H](C)O)[C@@H](C)O)[C@@H](C)CC)[C@@H](C)CC)C(=O)N[C@@H](CCCCNC(=O)COCCOCCNC(=O)COCCOCCNC(=O)CC[C@H](NC(=O)CCCCCCCCCCCCC(=O)O)C(=O)O)C(=O)NCC(=O)NCC(=O)N1CCC[C@H]1C(=O)N[C@@H](CO)C(=O)N[C@@H](CO)C(=O)NCC(=O)N[C@@H](C)C(=O)N1CCC[C@H]1C(=O)N1CCC[C@H]1C(=O)N1CCC[C@H]1C(=O)N[C@@H](CO)C(N)=O` [Example 488] yielded a Ki [1] of over 958 nM, an EC50 (hGCGR; [5]) of over 10100 nM and an EC50 (hGCGR; [6]) of over 9950 nM. The Ki [2] was 0.064 nM, the Emax (hGIPR; [7]) was 85.5% and the EC50 (hGIPR; [8]) was 0.0115 nM. The EC50 (hGIPR; [9]) was 0.718 nM, the Emax (hGLP-1R; [10]) was 113% and the EC50 (hGLP-1R; [5]) was 0.207 nM. For the same molecule, the EC50 (hGLP-1R; [6]) was 13 nM.
